Data as given in ChEMBL document CHEMBL1132040, “Bioreductively-activated prodrugs for targeting hypoxic tissues: elimination of aspirin from 2-nitroimidazole derivatives” (Bioorg Med Chem Lett, 1999).

Legend:
Assay type in all cases: ADME
[1] = Reductive elimination of leaving group was determined at pH 7.4; expressed as loss of parent
[2] = Half life period at pH 9.1 was determined
[3] = Half life period at pH 7.4 was determined

| Structure (SMILES) | Activity [1] [µM/J] | T1/2 [2] | T1/2 [3] |
| --- | --- | --- | --- |
| CC(=O)Oc1ccccc1C(=O)OCc1cnc([N+](=O)[O-])n1C | 0.19 | ~ 30 ms | – |
| Cn1c(CBr)cnc1[N+](=O)[O-] | 0.68 | – | ~ 0.3 ms |
| Cn1c(COC(=O)c2ccccc2O)cnc1[N+](=O)[O-] | 0.21 | ~ 250 ms | ~ 70 ms |
